{
  "source": "ChEMBL document CHEMBL1201862",
  "about": "“PubChem BioAssay data set” (2004)",
  "key": {"[1]": {"molecular_target": "T1, Polyadenylate-binding protein 1 (Homo sapiens, UniProt P11940)", "T1 sequence (P11940 whole entry)": "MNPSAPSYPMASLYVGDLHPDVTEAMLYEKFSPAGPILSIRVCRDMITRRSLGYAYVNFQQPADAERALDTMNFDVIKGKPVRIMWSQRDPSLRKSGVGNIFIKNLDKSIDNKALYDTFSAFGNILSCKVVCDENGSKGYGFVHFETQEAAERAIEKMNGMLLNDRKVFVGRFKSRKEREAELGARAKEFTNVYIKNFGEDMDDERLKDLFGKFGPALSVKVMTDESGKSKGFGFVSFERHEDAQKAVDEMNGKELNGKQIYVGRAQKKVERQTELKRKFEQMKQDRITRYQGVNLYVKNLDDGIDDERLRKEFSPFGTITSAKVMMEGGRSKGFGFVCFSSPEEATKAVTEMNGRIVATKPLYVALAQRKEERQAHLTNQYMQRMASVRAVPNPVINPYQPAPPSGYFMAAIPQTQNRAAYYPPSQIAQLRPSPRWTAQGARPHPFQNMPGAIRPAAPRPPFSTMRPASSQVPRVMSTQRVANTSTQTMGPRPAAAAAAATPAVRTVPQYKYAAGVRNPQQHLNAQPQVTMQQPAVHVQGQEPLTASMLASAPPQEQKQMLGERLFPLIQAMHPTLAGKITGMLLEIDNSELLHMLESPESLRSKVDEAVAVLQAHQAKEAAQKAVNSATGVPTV", "assay": "MLLE binding blockers, Cy5 peptide tracer – biochemical, fluorescence polarization, Cy5-PAM2 peptide, secondary, miRNA deadenylation inhibitor project, dose response (AID 602260)", "type": "functional", "conditions": "read-out: IC50_Mean"}, "[2]": {"molecular_target": "T2, Mitochondrial peptide methionine sulfoxide reductase (Bos taurus, UniProt P54149)", "T2 sequence (P54149 whole entry)": "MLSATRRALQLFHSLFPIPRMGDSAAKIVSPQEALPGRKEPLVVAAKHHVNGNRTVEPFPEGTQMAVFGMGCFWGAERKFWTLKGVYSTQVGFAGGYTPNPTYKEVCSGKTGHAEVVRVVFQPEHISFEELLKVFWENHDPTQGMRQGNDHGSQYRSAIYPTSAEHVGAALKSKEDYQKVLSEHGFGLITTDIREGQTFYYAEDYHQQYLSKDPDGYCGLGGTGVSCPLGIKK", "assay": "Absorbance-based biochemical high throughput dose response assay for activators of Methionine sulfoxide reductase A (MsrA).", "type": "functional"}, "[3]": {"molecular_target": "T1, Polyadenylate-binding protein 1", "assay": "MLLE domain peptide-binding blockers, IC50 – biochemical, fluorescence polarization, FITC-PAM2 peptide, dose response (AID 602259)", "type": "functional", "conditions": "read-out: IC50_Mean"}, "[4]": {"molecular_target": "Nuclear receptor subfamily 5 group A member 2 (Homo sapiens, UniProt O00482)", "sequence (O00482 whole entry)": "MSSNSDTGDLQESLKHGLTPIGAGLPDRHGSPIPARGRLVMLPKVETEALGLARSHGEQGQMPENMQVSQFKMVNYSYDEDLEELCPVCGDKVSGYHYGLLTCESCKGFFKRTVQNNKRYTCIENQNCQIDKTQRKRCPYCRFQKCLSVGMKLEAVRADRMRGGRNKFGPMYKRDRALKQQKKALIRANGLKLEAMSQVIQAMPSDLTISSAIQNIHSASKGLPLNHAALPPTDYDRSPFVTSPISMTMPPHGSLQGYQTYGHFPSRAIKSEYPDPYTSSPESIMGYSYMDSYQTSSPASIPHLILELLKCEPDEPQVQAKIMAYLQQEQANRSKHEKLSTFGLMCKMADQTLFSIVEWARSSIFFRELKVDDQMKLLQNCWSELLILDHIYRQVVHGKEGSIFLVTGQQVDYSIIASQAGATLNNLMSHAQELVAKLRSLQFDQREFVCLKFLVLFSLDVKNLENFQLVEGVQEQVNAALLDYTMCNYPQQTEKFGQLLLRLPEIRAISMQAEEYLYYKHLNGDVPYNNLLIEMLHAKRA", "type": "functional, cell-based"}, "Steroidogenic factor 1": {"molecular_target": "Steroidogenic factor 1 (Homo sapiens, UniProt Q13285)", "sequence (Q13285 whole entry)": "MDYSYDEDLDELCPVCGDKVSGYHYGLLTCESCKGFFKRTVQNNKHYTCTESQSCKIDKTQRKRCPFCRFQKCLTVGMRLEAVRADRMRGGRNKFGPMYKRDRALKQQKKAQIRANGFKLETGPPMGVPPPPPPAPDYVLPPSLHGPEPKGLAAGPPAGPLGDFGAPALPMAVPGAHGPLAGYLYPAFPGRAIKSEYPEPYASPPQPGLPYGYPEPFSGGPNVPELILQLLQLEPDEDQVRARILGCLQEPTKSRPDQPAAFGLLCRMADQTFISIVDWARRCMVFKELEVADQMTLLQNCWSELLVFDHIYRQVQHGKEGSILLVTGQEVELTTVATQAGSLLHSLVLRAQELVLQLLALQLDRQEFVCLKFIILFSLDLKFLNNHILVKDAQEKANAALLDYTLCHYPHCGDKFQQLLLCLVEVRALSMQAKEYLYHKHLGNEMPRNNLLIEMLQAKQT", "assay": "Counterscreen for inverse agonists of the liver receptor homolog-1 (LRH-1; NR5A2): Luminescence-based cell-based high throughput dose response assay to identify inverse agonists of the Steroidogenic Factor 1 Nuclear Receptor (SF1; NR5A1).", "type": "functional"}, "[5]": {"assay": "nonselective StAR promoter luciferase inhibitors – cell-based, luminescence, luciferase reporter, counter-screen for LRH-1 inverse agonist project, dose response (AID 651969)", "type": "functional"}, "[6]": {"assay": "NIH-3T3 fibroblast cytotoxicity, dose response, cytotoxicity control, cell-based, fluorescence, Alamar Blue, secondary assay (AID 2327);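 also: NIH-3T3 mouse fibroblasts cultured with fluconazole at 8 µg/mL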", "type": "functional"}, "[7]": {"molecular_target": "Peroxisome proliferator-activated receptor gamma/Nuclear receptor coactivator 1 (Homo sapiens, UniProt P37231)", "sequence (P37231 whole entry)": "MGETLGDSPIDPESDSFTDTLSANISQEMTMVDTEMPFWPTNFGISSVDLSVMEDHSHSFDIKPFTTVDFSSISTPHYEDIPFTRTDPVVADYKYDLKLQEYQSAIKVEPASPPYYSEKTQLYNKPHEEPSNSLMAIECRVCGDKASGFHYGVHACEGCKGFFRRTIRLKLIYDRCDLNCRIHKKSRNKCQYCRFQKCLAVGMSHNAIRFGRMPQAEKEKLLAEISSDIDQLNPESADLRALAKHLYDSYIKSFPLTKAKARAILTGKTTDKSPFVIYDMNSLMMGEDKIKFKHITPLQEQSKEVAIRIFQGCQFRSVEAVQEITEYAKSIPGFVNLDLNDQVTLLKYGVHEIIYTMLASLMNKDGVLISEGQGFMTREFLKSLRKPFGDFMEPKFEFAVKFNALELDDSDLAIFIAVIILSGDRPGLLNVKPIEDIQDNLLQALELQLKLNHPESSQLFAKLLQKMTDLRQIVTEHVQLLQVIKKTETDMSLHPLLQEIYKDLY", "sequence (Q15788 whole entry, further chain)": "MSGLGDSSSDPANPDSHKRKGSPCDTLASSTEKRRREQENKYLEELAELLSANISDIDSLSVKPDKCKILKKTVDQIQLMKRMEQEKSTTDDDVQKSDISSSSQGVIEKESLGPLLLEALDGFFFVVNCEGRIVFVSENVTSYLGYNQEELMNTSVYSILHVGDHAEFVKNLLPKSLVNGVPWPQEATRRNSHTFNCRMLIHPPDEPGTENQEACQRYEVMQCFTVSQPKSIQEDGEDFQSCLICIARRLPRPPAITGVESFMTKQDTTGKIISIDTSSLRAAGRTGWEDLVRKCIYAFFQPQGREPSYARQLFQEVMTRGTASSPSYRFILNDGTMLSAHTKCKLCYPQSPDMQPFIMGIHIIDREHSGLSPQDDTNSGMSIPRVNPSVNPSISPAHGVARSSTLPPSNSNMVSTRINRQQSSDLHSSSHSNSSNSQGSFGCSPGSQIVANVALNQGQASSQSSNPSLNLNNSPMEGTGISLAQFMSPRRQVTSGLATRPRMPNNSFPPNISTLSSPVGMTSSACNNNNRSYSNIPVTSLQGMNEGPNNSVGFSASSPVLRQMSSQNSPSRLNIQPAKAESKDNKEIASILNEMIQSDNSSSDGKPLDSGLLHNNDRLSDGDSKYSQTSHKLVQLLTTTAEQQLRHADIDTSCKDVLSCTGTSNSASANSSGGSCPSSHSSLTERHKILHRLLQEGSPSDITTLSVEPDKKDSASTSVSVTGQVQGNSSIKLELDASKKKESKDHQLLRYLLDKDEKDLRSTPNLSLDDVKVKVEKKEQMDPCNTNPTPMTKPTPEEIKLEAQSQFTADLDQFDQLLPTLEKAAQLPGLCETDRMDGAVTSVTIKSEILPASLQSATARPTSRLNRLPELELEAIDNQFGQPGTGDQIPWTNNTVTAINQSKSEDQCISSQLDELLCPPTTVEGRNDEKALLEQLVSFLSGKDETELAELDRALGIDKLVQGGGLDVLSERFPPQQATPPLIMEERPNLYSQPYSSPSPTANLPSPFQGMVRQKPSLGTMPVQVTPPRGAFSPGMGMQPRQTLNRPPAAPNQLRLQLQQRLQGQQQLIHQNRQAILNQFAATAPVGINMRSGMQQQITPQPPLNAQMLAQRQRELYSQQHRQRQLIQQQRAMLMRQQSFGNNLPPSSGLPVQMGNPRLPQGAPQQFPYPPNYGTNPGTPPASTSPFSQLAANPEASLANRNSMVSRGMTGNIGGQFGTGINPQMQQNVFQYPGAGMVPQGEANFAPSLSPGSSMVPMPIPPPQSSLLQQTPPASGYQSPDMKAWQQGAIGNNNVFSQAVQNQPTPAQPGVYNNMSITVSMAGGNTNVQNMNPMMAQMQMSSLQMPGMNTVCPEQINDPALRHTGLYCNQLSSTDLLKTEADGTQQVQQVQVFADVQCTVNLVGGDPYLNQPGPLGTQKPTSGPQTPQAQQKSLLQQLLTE", "assay": "(§1) TR-FRET dose response biochemical High Throughput Screening assay for agonists of the steroid receptor coactivator 1 (SRC-1) recruitment by the peroxisome proliferator-activated receptor gamma (PPAR gamma): non-selective agonists. [Related pubchem assays (depositor defined):AID1300, AID1808, AID504735, AID631]", "type": "protein assay"}, "[8]": {"molecular_target": "Peroxisome proliferator-activated receptor gamma/Nuclear receptor coactivator 3 (Homo sapiens, UniProt P37231)", "assay": "as §1, with “3 (SRC-3)” for “1 (SRC-1)”, “assays: 1301 (Confirmation screen.), 1048 (Primary screen.)]” for “assays (depositor defined):AID1300, AID1808, AID504735, AID631]”", "type": "functional"}, "[9]": {"assay": "fluconazole-exposed Candida albicans growth modulators – fluorescence, retest, confirmation (AID 2467)", "type": "functional, cell-based"}, "[10]": {"molecular_target": "T3, Serine/threonine-protein phosphatase (Candida dubliniensis (strain CD36 / CBS 7987 / NCPF 3949 / NRRLY-17841) (Yeast), UniProt B9W6M3)", "T3 sequence (B9W6M3 whole entry)": "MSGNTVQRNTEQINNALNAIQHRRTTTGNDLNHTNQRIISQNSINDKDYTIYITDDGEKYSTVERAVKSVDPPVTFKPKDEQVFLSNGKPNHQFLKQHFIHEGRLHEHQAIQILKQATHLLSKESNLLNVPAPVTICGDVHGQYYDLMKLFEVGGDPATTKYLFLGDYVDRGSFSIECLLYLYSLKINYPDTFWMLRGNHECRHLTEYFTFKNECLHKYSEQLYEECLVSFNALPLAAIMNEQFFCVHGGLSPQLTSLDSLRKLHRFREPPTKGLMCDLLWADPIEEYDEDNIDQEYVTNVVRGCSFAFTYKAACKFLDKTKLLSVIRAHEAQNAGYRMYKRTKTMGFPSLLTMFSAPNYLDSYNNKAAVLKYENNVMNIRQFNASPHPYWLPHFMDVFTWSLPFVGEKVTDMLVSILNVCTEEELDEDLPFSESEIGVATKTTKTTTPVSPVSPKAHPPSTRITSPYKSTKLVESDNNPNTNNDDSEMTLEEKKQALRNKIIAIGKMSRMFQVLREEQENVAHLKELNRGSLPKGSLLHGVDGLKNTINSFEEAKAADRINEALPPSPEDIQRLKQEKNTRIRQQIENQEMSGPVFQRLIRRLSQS", "assay": "blockers of CaCl2-induced CDRE-lacZ signaling – S. cerevisiae, luminescence, secondary, dose response (AID 2388)", "type": "functional, cell-based"}, "[11]": {"molecular_target": "Peroxisome proliferator-activated receptor gamma/Nuclear receptor coactivator 2 (Homo sapiens, UniProt P37231)", "assay": "TR-FRET dose response biochemical High Throughput Screening assay for agonists of the steroid receptor coactivator 2 (SRC-2) recruitment by the peroxisome proliferator-activated receptor gamma (PPAR gamma): non-selective agonists. [Related pubchem assays: 1297, 1032 ]", "type": "functional"}, "Troponin, cardiac muscle": {"molecular_target": "Troponin, cardiac muscle (Homo sapiens, UniProt P19429+P45379+P63316)", "assay": "Fluorescence-based biochemical high throughput dose response assay for activators of the calcium sensitivity of cardiac Regulated Thin Filaments (RTF). [Related pubchem assays (depositor defined):AID493008, AID493018, AID504382, AID504383]", "type": "protein-complex assay"}, "[12]": {"molecular_target": "ATP-dependent molecular chaperone HSP82 (Candida albicans (strain WO-1) (Yeast), UniProt C4YTQ8)", "sequence (C4YTQ8 whole entry)": "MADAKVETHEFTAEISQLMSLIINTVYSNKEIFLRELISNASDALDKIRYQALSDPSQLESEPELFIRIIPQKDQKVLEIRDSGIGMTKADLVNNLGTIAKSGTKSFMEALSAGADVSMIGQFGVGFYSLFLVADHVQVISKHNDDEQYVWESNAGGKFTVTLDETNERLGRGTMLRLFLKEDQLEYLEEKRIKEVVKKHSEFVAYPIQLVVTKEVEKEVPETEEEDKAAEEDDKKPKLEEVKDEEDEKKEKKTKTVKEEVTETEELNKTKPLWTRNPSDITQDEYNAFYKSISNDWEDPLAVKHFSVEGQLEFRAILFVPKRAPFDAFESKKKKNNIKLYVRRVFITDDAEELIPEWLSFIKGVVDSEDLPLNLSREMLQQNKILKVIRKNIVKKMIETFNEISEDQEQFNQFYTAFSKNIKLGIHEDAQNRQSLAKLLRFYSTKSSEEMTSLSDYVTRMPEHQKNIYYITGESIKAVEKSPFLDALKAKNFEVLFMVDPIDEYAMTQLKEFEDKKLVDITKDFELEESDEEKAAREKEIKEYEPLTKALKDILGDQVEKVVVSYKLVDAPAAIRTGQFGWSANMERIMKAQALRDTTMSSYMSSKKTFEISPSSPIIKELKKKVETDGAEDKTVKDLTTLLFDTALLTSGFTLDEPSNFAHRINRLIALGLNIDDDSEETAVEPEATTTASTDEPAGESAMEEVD", "assay": "steroid-induced GRE reporter decrease in yeast – S. cerevisiae, luminescence, Hsp90 inhibitor project, dose response (AID 2400)", "type": "functional, cell-based"}, "[13]": {"molecular_target": "Hepatocyte nuclear factor 4-alpha (Homo sapiens, UniProt P41235)", "sequence (P41235 whole entry)": "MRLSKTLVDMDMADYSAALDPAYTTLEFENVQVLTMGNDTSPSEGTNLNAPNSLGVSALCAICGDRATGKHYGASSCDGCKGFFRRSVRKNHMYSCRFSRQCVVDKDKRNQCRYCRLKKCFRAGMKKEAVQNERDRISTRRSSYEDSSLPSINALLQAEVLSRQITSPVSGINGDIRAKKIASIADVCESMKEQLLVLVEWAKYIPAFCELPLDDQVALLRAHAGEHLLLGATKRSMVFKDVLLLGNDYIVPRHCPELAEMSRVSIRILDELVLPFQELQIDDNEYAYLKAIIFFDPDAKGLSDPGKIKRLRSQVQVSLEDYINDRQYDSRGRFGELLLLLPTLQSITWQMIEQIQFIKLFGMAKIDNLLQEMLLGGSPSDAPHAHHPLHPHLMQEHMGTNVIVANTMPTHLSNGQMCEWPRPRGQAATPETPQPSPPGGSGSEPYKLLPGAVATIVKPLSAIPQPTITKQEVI", "type": "functional, cell-based"}, "CHO-K1": {"tested_on": "CHO-K1", "assay": "(§2) Counterscreen for antagonists of the orexin 1 receptor (OX1R; HCRTR1): Homogeneous time resolved fluorescence (HTRF)-based cell-based dose response assay to identify antagonists of the parental CHO-K1 cell line. [Related pubchem assays (depositor defined):AID434989, AID435008, AID463079, AID485270, AID492963, AID492964, AID492965, AID493232, AID504699, AID504701]", "type": "functional", "conditions": "Cricetulus griseus"}, "[14]": {"assay": "as §2, with “Fluorescence-based” for “Homogeneous time resolved fluorescence (HTRF)-based”, “cell-based high throughput” for “cell-based”, “CHO” for “CHO-K1”", "type": "functional"}, "[15]": {"molecular_target": "T4, Orexin/Hypocretin receptor type 1 (Homo sapiens, UniProt O43613)", "T4 sequence (O43613 whole entry)": "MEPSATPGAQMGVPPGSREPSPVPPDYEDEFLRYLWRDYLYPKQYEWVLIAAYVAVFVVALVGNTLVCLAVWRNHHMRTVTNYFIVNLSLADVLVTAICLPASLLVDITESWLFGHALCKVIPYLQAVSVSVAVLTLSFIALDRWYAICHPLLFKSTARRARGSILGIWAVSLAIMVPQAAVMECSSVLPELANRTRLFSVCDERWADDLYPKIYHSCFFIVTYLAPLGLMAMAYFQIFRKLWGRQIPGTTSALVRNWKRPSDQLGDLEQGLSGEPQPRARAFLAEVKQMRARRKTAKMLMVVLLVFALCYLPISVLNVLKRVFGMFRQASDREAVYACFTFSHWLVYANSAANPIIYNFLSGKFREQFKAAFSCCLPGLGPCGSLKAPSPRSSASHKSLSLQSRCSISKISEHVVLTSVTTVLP", "assay": "Homogeneous Time Resolved Fluorescence (HTRF)-based cell-based high throughput dose response assay for antagonists of the orexin 1 receptor (OX1R; HCRTR1). [Related pubchem assays (depositor defined):AID434989, AID435008, AID463079, AID485270, AID492963, AID492964, AID492965, AID493232, AID504717, AID504718]", "type": "functional"}, "[16]": {"molecular_target": "T4, Orexin/Hypocretin receptor type 1", "assay": "Fluorescence-based cell-based high throughput dose response assay for antagonists of the orexin 1 receptor (OX1R; HCRTR1). [Related pubchem assays (depositor defined):AID434989, AID435008, AID463079, AID485270, AID492963, AID492964, AID492965, AID493232, AID504717, AID504718]", "type": "functional"}, "Orexin receptor type 2 [17]": {"molecular_target": "T5, Orexin receptor type 2 (Homo sapiens, UniProt O43614)", "T5 sequence (O43614 whole entry)": "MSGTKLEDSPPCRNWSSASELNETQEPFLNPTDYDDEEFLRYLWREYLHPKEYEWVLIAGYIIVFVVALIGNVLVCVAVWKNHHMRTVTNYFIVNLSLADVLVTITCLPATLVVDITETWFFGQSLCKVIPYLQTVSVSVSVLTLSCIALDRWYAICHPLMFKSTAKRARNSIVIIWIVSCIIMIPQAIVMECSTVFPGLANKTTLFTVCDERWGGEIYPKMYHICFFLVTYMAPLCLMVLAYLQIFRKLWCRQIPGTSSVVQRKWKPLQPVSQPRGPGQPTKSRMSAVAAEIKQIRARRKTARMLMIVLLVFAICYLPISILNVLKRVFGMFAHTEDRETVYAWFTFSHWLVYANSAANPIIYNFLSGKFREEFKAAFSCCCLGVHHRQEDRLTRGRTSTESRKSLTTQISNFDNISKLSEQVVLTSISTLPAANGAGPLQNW", "assay": "Counterscreen assay for antagonists of the orexin 1 receptor (OX1R; HCRTR1): Fluorescence-based cell-based dose response assay for antagonists of the orexin 2 receptor (OX2R; HCRTR2), run by assay provider.", "type": "functional"}, "Orexin receptor type 2 [18]": {"molecular_target": "T5, Orexin receptor type 2", "assay": "Counterscreen assay for antagonists of the orexin 1 receptor (OX1R; HCRTR1): Homogeneous Time Resolved Fluorescence (HTRF)-based cell-based dose response assay for antagonists of the orexin 2 receptor (OX2R; HCRTR2), run by assay provider.", "type": "functional"}},
  "note": "The source made the active and inactive calls.",
  "data": [
    {"smiles": "O=c1[nH]c(=S)[nH]cc1Oc1ccc(Cl)cc1Cl", "values": [
      {"measurement": "IC50", "setting": "[1]", "value": "> 66 µM (inactive)"},
      {"measurement": "EC50", "setting": "[2]", "value": "> 104 µM (inactive)"},
      {"measurement": "IC50", "setting": "[3]", "value": "> 66 µM (inactive)"}
    ]},
    {"smiles": "COc1ccc(/C=N/NC(=O)c2ccc(NC(=O)c3cccc([N+](=O)[O-])c3)cc2)c(OC)c1", "values": [
      {"measurement": "IC50", "setting": "[4]", "value": "23.1 µM (inactive)"},
      {"measurement": "IC50", "setting": "Steroidogenic factor 1", "value": "3.07 µM (active)"},
      {"measurement": "IC50", "setting": "[5]", "value": "35.9 µM (inactive)"}
    ]},
    {"smiles": "Cc1c(O)c2c3c(cccc3c1O)C(=O)N(c1ccccc1)C2=O", "values": [
      {"measurement": "EC50", "setting": "[6]", "value": "> 150 µM (inactive)"},
      {"measurement": "EC50", "setting": "[7]", "value": "> 79.4 µM (inactive)"},
      {"measurement": "EC50", "setting": "[8]", "value": "> 79.4 µM (not active)"},
      {"measurement": "EC50", "setting": "[9]", "value": "0.492 µM (active)"},
      {"measurement": "EC50", "setting": "[10]", "value": "> 180 µM (inactive)"},
      {"measurement": "EC50", "setting": "[11]", "value": "> 79.4 µM (not active)"},
      {"measurement": "EC50", "setting": "Troponin, cardiac muscle", "value": "2.9 µM (active)"},
      {"measurement": "EC50", "setting": "[12]", "value": "82.8 µM (active)"}
    ]},
    {"smiles": "O=C1C(Cl)=C(NCc2ccco2)C(=O)c2ccccc21", "values": [
      {"measurement": "EC50", "setting": "[2]", "value": "> 104 µM (inactive)"}
    ]},
    {"smiles": "O=C(Cn1c(=O)n(Cc2ccco2)c(=O)c2c3c(sc21)CCCC3)Nc1ccccc1", "values": [
      {"measurement": "IC50", "setting": "[13]", "value": "22.2 µM (inactive)"}
    ]},
    {"smiles": "CCCCCCSc1nnc2nc(O)cc(N)n12", "values": [
      {"measurement": "EC50", "setting": "[6]", "value": "79.9 µM (active)"},
      {"measurement": "EC50", "setting": "[9]", "value": "0.52 µM (active)"},
      {"measurement": "EC50", "setting": "[10]", "value": "> 180 µM (inactive)"},
      {"measurement": "EC50", "setting": "[12]", "value": "> 150 µM (inactive)"}
    ]},
    {"smiles": "Cc1nc2c(-c3ccccc3)c(C)nn2c(N)c1-c1ccccc1", "values": [
      {"measurement": "IC50", "setting": "CHO-K1", "value": "> 66.2 µM (inactive)"},
      {"measurement": "IC50", "setting": "[14]", "value": "49 µM (inactive)"},
      {"measurement": "IC50", "setting": "[15]", "value": "5.34 µM (active)"},
      {"measurement": "IC50", "setting": "[16]", "value": "13.3 µM (inactive)"},
      {"measurement": "IC50", "setting": "Orexin receptor type 2 [17]", "value": "24.9 µM (inactive)"},
      {"measurement": "IC50", "setting": "Orexin receptor type 2 [18]", "value": "> 50 µM (inactive)"}
    ]}
  ]
}
